Data from PMC11109052, “Metabolism characterization and toxicity of N-hydap, a marine candidate drug for lung cancer therapy by LC–MS method” (Natural Products and Bioprospecting, 2024).

Experiments:
[1] = Distribution studies in mice organs; format: in vivo; settings: 30 min and 4 h
Method: The heart, liver, spleen, lungs and kidneys were removed from mice after administering a dose of 5 mg/kg through oral gavage and 2 mg/kg through tail vein injection at 30 min and 240 min, followed by homogenization with normal saline. The resulting homogenate was centrifuged at 4 °C, 13,000 rpm for 20 min, and the supernatant was then mixed with the internal standard by vortexing. The mixtures were centrifuged at 4 °C, 13,000 rpm for 15 min. The resulting supernatant was then subjected to vacuum drying for 3–4 h. Lastly, the dried powder was reconstituted with a mixture of 50% methanol and water, and then centrifuged for LC–MS testing.

Cyp2c39 = assay: Real-time PCR mRNA level after 7 days gavage: Cyp2c39 (human homolog CYP2C19); format: in vivo, mice; parameters: key to CYP2C19 mNA expression: ↑: up-regulation; ↓: down-regulation; –: no change
Method: (§1) Mice were randomly divided into four groups, with eight animals in each group. The mice received oral pretreatment with N-hydap for 7 days at doses of 2, 5, and 10 mg/kg/day, which were considered as the low dose, medium dose, and high dose, respectively. Correspondingly, the control group received PBS. On the 8th day, the liver and kidneys were removed, and organs from eight mice per group were combined to prepare MLMs and MKMs using the detailed procedures above. Subsequently, we determined the activity of CYP and UGT enzymes by specific substrate metabolized with MLMs (0.5 mg/mL) and MKMs (0.2 mg/mL) in vitro. Specifically, the following selective substrates were used for the respective enzymes: PH (1 μM) for CYP1A2, DIC (1 μM) for CYP2C9, MP (90 μM) for CYP2C19, DM (1 μM) for CYP2D6, CZX (10 μM) for CYP2E1, Tes (1 μM) for CYP3A4, SN38 (1 μM) for UGT1A1, CACD (100 μM) for UGT1A3, Sero (20 μM) for UGT1A6, and Prop (1 μM) for UGT1A9. All substrates were dissolved in methanol or DMSO. The incubation procedure was carried out as mentioned above, and the reaction was terminated with VER (20 ng/mL) in ESI+ mode and CLP (200 ng/mL) in ESI− mode. In the ex vivo experiments, the activity of enzymes was measured by quantifying the production of various metabolites (nM/mg protein/min). The metabolites and their corresponding enzymes are as follows: APAP from PH, 4-OH-DIC from DIC, 4-OH-MP from MP, DXO from DM, 6-OH-CZX from CZX, 6-OH-Tes from Tes, SN38-G from SN38, CACD-G from CACD, Sero-G from Sero, Prop-G from Prop. The measurements were performed using multiple reaction monitoring (MRM) transitions, which are specific mass spectrometry transitions used for quantification. […]
Total RNA from liver and kidney samples taken after 7 days of N-hydap gavage was extracted using the Animal Total RNA Isolation Kit (Foregene, Chengdu, Sichuan, China) following the manufacturer’s instructions. The concentrations of total RNA were determined by a nucleic acid concentration tester at 260/280 nm. […]

Cyp2e1 = assay: DME activity ex vivo in MLMs and MKMs: CYP2E1 (6-OH-CZX from CZX); parameters: species or system mice; key: ↑: up-regulation; ↓: down-regulation; –: no change
Method: as §1, with “The incubation procedure was carried out as mentioned above, and the reaction was terminated with VER (20 ng/mL) in ESI+ mode and CLP (200 ng/mL) in ESI− mode.” left out, “The metabolites and their corresponding enzymes are as follows: APAP from PH, 4-OH-DIC from DIC, 4-OH-MP from MP, DXO from DM, 6-OH-CZX from CZX, 6-OH-Tes from Tes, SN38-G from SN38, CACD-G from CACD, Sero-G from Sero, Prop-G from Prop.” left out

[2] = Stability in KPI solution (pH 7.4); format: physicochemical; settings: for stability, Accuracy (Bias, %): KPI
Method: To verify the feasibility and reliability of the established method, studies on the linearity, accuracy, precision, and stability of N-hydap in potassium phosphate buffer (KPI, pH 7.4, were prepared by mixing KH2PO4 and K2HPO4 in corresponding proportions, and then adding NaOH and H3PO4 to pH 7.4), plasma, and tissue homogenate were carried out. The peak area ratios (analyte/IS) were plotted against the concentrations of the analytes prepared to obtain the calibration curves. Least squares linear regression analysis was used to determine the slopes, intercepts, and determination coefficients (R^2) which should be 0.99 or above of calibration curves. The standard curve equations were determined as y = 0.0001512x + 0.04394 (R^2 = 0.9980) for KPI, y = 0.001579x − 0.09233 (R^2 = 0.9923) for plasma, and y = 0.002271x + 0.03542 (R^2 = 0.9978) for tissue homogenate (Supplementary Fig. 1A–C).
The stability of the KPI solution was examined after storage at 4 °C for 24 h and incubation at 37 °C for 4 h, which was conducted using the QC samples at three concentrations (five samples for each concentration). Stability in plasma and tissue homogenate was assessed by testing samples stored at both 4 °C and room temperature for 24 h.

With `CC1CCC2C(C=CC(C)C2C(=O)c2c(O)c(C3(O)CCC(O)C4OC43)cn(O)c2=O)C1` (stereo not shown) [N-hydap, N-Hydroxyapiosporamide] the “total distribution ratio, heart” value ([1]; oral 5 mg/kg) was 13.35%, the “total distribution ratio, kidneys” value ([1]; oral 5 mg/kg) was 25.50% and the “total distribution ratio, liver” value ([1]; oral 5 mg/kg) was 11.45%. For the same compound, the “total distribution ratio, lungs” value ([1]; oral 5 mg/kg) was 26.26%, the “total distribution ratio, spleen” value ([1]; oral 5 mg/kg) was 23.44% and the “total distribution ratio, heart” value ([1]; tail vein injection 2 mg/kg) was 10.57%. The “total distribution ratio, kidneys” value ([1]; tail vein injection 2 mg/kg) was 14.08%, the “total distribution ratio, liver” value ([1]; tail vein injection 2 mg/kg) was 37.61% and the “total distribution ratio, lungs” value ([1]; tail vein injection 2 mg/kg) was 23.17%. The “total distribution ratio, spleen” value ([1]; tail vein injection 2 mg/kg) was 14.57%, the “CYP2C19 mNA expression” value (Cyp2c39; Kidney) was “↓” and the “CYP2C19 mNA expression” value (Cyp2c39; Liver) was “↓”. The “mRNA levels of Cyp2c39” value (Cyp2c39; mice, 2, 5, 10 mg/kg p.o. 7 days, liver and kidneys) was “slight reduction”, the “CYP2E1 Enzymatic activity” value (Cyp2e1; Kidney) was “↑” and the “CYP2E1 Enzymatic activity” value (Cyp2e1; Liver) was “↓”. The “results of the stability experiments” value ([2]; KPI solution, plasma and tissue homogenate, all storage conditions) was “no significant degradation”, the “stability, Accuracy (Bias, %)” value ([2]; 200 nM, 4℃ for 24h) was 113.85% and the “stability, Accuracy (Bias, %)” value ([2]; 200 nM, 37℃ for 4h) was 87.75%. The “stability, Accuracy (Bias, %)” value ([2]; 600 nM, 4℃ for 24h) was 105.48%, the “stability, Accuracy (Bias, %)” value ([2]; 600 nM, 37℃ for 4h) was 85.75% and the “stability, Accuracy (Bias, %)” value ([2]; 2500 nM, 4℃ for 24h) was 104.40%. The “stability, Accuracy (Bias, %)” value ([2]; 2500 nM, 37℃ for 4h) was 97.32%.
